Data taken from patent publication US11639531B2, “Composition, kit, and method for diagnosis and treatment of taxane anticancer agent-resistant cancer” (SUNGKWANG MEDICAL FOUNDATION, priority 2018, dated 2023).

Key:
Format in all cases: cell-based, human
[1] = tested on: SKpac-17 cells; assay: Spheroid-forming assay (miR-150); details: PTX alone-treatment
Experimental: Spheroid-forming assays were performed to verify the effect of miR-150 on cancer stem cell activation. SKpac-17 cells were transfected with pre miR-150 or pre miR-negative. Cells were plated in Ultra-Low-Attachment Surface 6-well culture plates (Corning, Action, MA, USA) in serum-free DEME/F12 medium (Gibco/Life Technologies, Grand Island, N.Y., USA) supplemented with 20 ng/ml epidermal growth factor (Gibco, Carlsbad, Calif., USA), 10 ng/ml basic fibroblast growth factor (Sigma-Aldrich, St. Louis, Mo., USA), 0.4% bovine serum albumin (Sigma-Aldrich, St. Louis, Mo., USA), and 5 μg/mL insulin (Sigma-Aldrich, St. Louis, Mo., USA) at a density of 1000 cells/cm^2. Spheroid formation (of 50 to 100 cells per spheroid) was assessed 7 days after seeding.
In order to verify the effect of miR-150 transfection on cancer stem cells (CSCs) activation, a spheroid-forming assay was performed on paclitaxel-resistant SKpac cells in this Example, and alteration of mRNA of the stemness genes was detected using real-time RT-PCR.

[2] = tested on: SKpac cells (SKpac-12, SKpac-16, and SKpac-17); assay: TUNEL assay for apoptosis (miR-150); details: 48 hours
Experimental: TUNEL assays were performed after pre miR-150 transfection in SKpac-12 and SKpac-17. After 48 hours, apoptotic cells were analyzed using the In Situ Cell Death Detection kit (Roche, Mannheim, Germany). 2×10^7 cells were fixed with 75% ethanol for 2 hours at −20° C. The cells were washed twice with PBS and incubated with 0.1% Triton X-100 and 0.1% sodium citrate for 2 minutes on ice. After washing twice with PBS, the cells were incubated with a TUNEL-labelling mixture for 1 hour at 37° C. in the dark. The samples were washed twice with PBS and analyzed by fluorescence activated cell sorting (FACS) (Becton Dickinson, Franklin Lakes, N.J., USA).
In addition, to determine the effect of miR-150 on apoptosis, the SKpac cells (SKpac-12, SKpac-16, and SKpac-17) were transfected with pre miR-150, and then a TUNEL assay was performed on the cells. […] Collectively, the pre miR-150 transfection by itself or increased a sensitivity of tumor cells with respect to PTX and thus decreased tumor cell proliferation and induced apoptosis in PTX-resistant ovarian cancer cells.

[3] = tested on: HUVECs; assay: Angiogenesis (tube formation) assay (miR-150)
Experimental: Matrigel (BD Biosciences, California, USA) was placed into flat-bottom, 96-well plate and polymerized for 1 hour at 37° C. HUVECs incubated in M199 containing 1% FBS were harvested after trypsin treatment, resuspended in M199, plated onto the layer of Matrigel at a density of 1×10^4 cells/well, and the supernatant of SKpac-17 cells transfected by pre miR150 was added. After 24 hours, 48 hours, and 72 hours, tube formation was observed.
Cell migration and angiogenesis are important factors that influence tumor progression and metastasis. In this Example, a wound healing assay and a tube formation assay were performed to examine the effect of pre miR-150 on cell migration and the effect on angiogenesis, respectively.

[4] = tested on: SKpac cells; assay: WST (CCK-8) cell viability assay (miR-136); details: PTX-alone treatment
Experimental: In order to investigate the role of miR-136 in the anticancer agent-sensitivity and proliferation activity of PTX-resistant SKpac cells, cell survival rate, cell proliferation, and apoptosis analyses were performed on the SKpac cells transfected by miR-136 mimics. […] In addition, to confirm whether overexpression of miR-136 increases cell toxicity induced by PTX, degrees of apoptosis were evaluated using a TUNEL analysis. […] In collection of these experiment results, it may be known that the overexpression of miR-136, when used alone or in a combination with PTX, decreases cell viability and cell proliferation of anticancer agent-resistant ovarian cancer cells and increases apoptosis.

With `CC(=O)O[C@H]1C(=O)[C@@]2(C)[C@H]([C@H](OC(=O)c3ccccc3)[C@]3(O)C[C@H](OC(=O)[C@H](O)[C@@H](NC(=O)c4ccccc4)c4ccccc4)C(C)=C1C3(C)C)[C@]1(OC(C)=O)CO[C@@H]1C[C@@H]2O` [PTX, paclitaxel] the spheroid formation [1] was “no changes”, the “apoptosis of the comparison treatments” value [2] was 3.5% and the “reduction effect (migration / tube formation)” value [3] was “not observed”. For the same compound, the “influence on the cell viability” value [4] was “no influence”.
